We go through 20 compounds from US11566007B2, “Ras inhibitors” (Revolution Medicines, Inc., priority 2019, dated 2023).

Assay [1] relates to NCI-H358 cells (K-Ras G12C). Kind of assay: Potency assay: pERK in NCI-H358 cells. Type of assay: cell-based, human. The settings on record: Homo sapiens, NCI-H358; H358 KRAS G12C; read-out: pERK EC50. The method in brief: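 4 h cpd, 37 °C; 10-pt 3-fold series, 10 mM DMSO top stock, duplicates. Readout pERK: AlphaLISA SureFire Ultra or In-Cell Western (IR-800CW secondary, DRAQ5 DNA stain). IC50, 4-PL fit vs log conc.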

Assay [2] relates to NCI-H358 (K-Ras G12C). As to the kind of experiment: CellTiter-Glo cell viability assay, NCI-H358. The conditions noted are these: Homo sapiens, NCI-H358, 120 h, class symbols. The class given is cell-based, human. The essentials:
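Viability of K-Ras mutant lines is measured by ATP luminescence after five days of compound treatment. Percent of DMSO control is calculated and dose-response data are fitted with a four-parameter logistic equation.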
In general terms: Cellular ATP, detected with luciferase, serves as a proxy for viable cell number.

The mark [3] stands for this setting: NCI-H358, 5-day treatment, read-out: Additional H358 Cell Viability assay data (K-Ras G12C, IC50).
[4] abbreviates: read-out: Additional H358 Cell Viability assay data (K-Ras G12C, IC50, uM), NCI-H358, 5-day treatment.

Usually EC50 stands for the concentration needed to bring the measured effect to its halfway point. As usually defined, the IC50 is the concentration needed to halve the response being measured.

Read-outs that look alike come from different tables or passages of the source. Some results are limits rather than exact numbers.

Turning to `C=CC(=O)N1CC[C@H](C(=O)N(C)[C@H](C(=O)N[C@H]2Cc3cc(O)cc(c3)-c3ccc4c(c3)c(c(-c3cccnc3)n4CC)CC(C)(C)COC(=O)[C@@H]3CCCN(N3)C2=O)C(C)C)C1` [Example A45], the EC50 in assay [1] is below 5000 nM. In assay [2] (setting [3]), the IC50 is 0.01 to 0.1 µM.
In the case of `CCn1c(-c2ccccc2CN(C)C)c2c3cc(ccc31)-c1cc(O)cc(c1)C[C@H](NC(=O)[C@H](C(C)C)N(C)C(=O)c1ccc(NC(=O)/C=C/CN(C)C)cn1)C(=O)N1CCC[C@H](N1)C(=O)OCC(C)(C)C2` [Example A46], the EC50 in assay [1] was below 5000 nM. Moreover, the IC50 in assay [2] (setting [3]) was above 1 µM.
With `CCn1c(-c2ccccc2CN(C)C)c2c3cc(ccc31)-c1cc(O)cc(c1)C[C@H](NC(=O)[C@H](C(C)C)N(C)C(=O)[C@H]1CCN(C(=O)/C=C/CN(C)C)C1)C(=O)N1CCC[C@H](N1)C(=O)OCC(C)(C)C2` [Example A47], the EC50 in assay [1] is below 5000 nM. Further, the IC50 in assay [2] (setting [3]) fell in the range of 0.01 to 0.1 µM.
For `C=CC(=O)N1CC[C@H](C(=O)N(C)[C@H](C(=O)N[C@H]2Cc3cc(O)cc(c3)-c3ccc4c(c3)c(c(-c3ccc5c(c3)OCCN5C)n4CC)CC(C)(C)COC(=O)[C@@H]3CCCN(N3)C2=O)C(C)C)C1` [Example A50], the EC50 in assay [1] is below 5000 nM. In addition, the IC50 in assay [2] (setting [3]) is 0.1 to 1 µM.
Regarding `C=CC(=O)N1CC[C@H](C(=O)N(C)[C@H](C(=O)N[C@H]2Cc3cc(O)cc(c3)-c3ccc4c(c3)c(c(-c3ccc(CN(C)C)cc3COC)n4CC)CC(C)(C)COC(=O)[C@@H]3CCCN(N3)C2=O)C(C)C)C1` [Example A51], the 50% effective concentration (EC50) in assay [1] was below 5000 nM. The IC50 in assay [2] (setting [3]) was 0.01 to 0.1 µM.
The matching figures for `C=CC(=O)N1C[C@H](C)[C@H](C(=O)N(C)[C@H](C(=O)N[C@H]2Cc3cc(O)cc(c3)-c3ccc4c(c3)c(c(-c3ccccc3CN(C)C)n4CC)CC(C)(C)COC(=O)[C@@H]3CCCN(N3)C2=O)C(C)C)C1` [Example A52]: below 5000 nM and 0.01 to 0.1 µM.
Regarding `CCn1c(-c2cccnc2COC)c2c3cc(ccc31)-c1cc(O)cc(c1)C[C@H](NC(=O)[C@H](C(C)C)N(C)C(=O)[C@H]1CCN(C(=O)/C=C/CN(C)C)C1)C(=O)N1CCC[C@H](N1)C(=O)OCC(C)(C)C2` [Example A54, (2S)-2-{1-[(3S)-1-[(2E)-4-(dimethylamino)but-2-enoyl]pyrrolidin-3-yl]-N-methylformamido}-N-[(8S,14S)-22-ethyl-4-hydroxy-21-[2-(methoxymethyl)pyridin-3-yl]-18,18-dimethyl-9,15-dioxo-16-oxa-10,22,28-triazapentacyclo[18.5.2.1^2,^6.1^10,^14.0^23,^27]nonacosa-1(26),2,4,6(29),20,23(27),24-heptaen-8-yl]-3-methylbutanamide], in assay [1], the EC50 was below 5000 nM. Moreover, the IC50 in assay [2] (setting [3]) was 0.01 to 0.1 µM.
On to `C=CC(=O)N1CC[C@H](C(=O)N(C)[C@H](C(=O)N[C@H]2Cc3cc(O)cc(c3)-c3ccc4c(c3)c(c(-c3cccnc3COC)n4CC)CC(C)(C)COC(=O)[C@@H]3CCCN(N3)C2=O)C2CCCC2)C1` [Example A55], for which the EC50 in assay [1] is below 5000 nM. Besides, the IC50 in assay [2] (setting [3]) is below 0.01 µM.
Consider `C=CC(=O)N1C[C@H](C)[C@H](C(=O)N(C)[C@H](C(=O)N[C@H]2Cc3cc(O)cc(c3)-c3ccc4c(c3)c(c(-c3cccnc3COC)n4CC)CC(C)(C)COC(=O)[C@@H]3CCCN(N3)C2=O)C(C)C)C1` [Example A56], for which the 50% effective concentration (EC50) in assay [1] was below 5000 nM. For the same compound, in assay [2] (setting [4]), the IC50 was below 0.01 µM.
On to `C=CC(=O)N1C[C@H](C)[C@H](C(=O)N(C)[C@H](C(=O)N[C@H]2Cc3cc(O)cc(c3)-c3ccc4c(c3)c(c(-c3cccnc3COC)n4CC)CC(C)(C)COC(=O)[C@@H]3CCCN(N3)C2=O)C2CCCC2)C1` [Example A57], for which the EC50 in assay [1] was below 5000 nM. For the same compound, in assay [2] (setting [3]), the IC50 was below 0.01 µM.
The matching figures for `C=CC(=O)N1CC[C@H](C(=O)N(C)[C@H](C(=O)N[C@H]2Cc3cc(O)cc(c3)-c3ccc4c(c3)c(c(C3=C(COC)COCC3)n4CC)CC(C)(C)COC(=O)[C@@H]3CCCN(N3)C2=O)C(C)C)C1` [Example A58]: below 5000 nM and 0.01 to 0.1 µM.
As for `C=CC(=O)N1CC[C@H](C(=O)N(C)[C@H](C(=O)N[C@H]2Cc3cc(OC(C)=O)cc(c3)-c3ccc4c(c3)c(c(-c3ccccc3CN(C)C)n4CC)CC(C)(C)COC(=O)[C@@H]3CCCN(N3)C2=O)C(C)C)C1` [Example A59], in assay [1], the EC50 was below 5000 nM. The IC50 in assay [2] (setting [4]) lay within 0.1 to 1 µM.
For `C=CC(=O)N1CC[C@H](C(=O)N(C)[C@H](C(=O)N[C@H]2Cc3cc(O)cc(c3)-c3ccc4c(c3)c(c(-c3cccnc3N3CC(OC)C3)n4CC)CC(C)(C)COC(=O)[C@@H]3CCCN(N3)C2=O)C(C)C)C1` [Example A60], the EC50 in assay [1] is below 5000 nM. The IC50 in assay [2] (setting [3]) was 0.01 to 0.1 µM.
The matching figures for `C=CC(=O)N1CC[C@H](C(=O)N(C)[C@H](C(=O)N[C@H]2Cc3cc(O)cc(c3)-c3ccc4c(c3)c(c(-c3cncnc3)n4CC)CC(C)(C)COC(=O)[C@@H]3CCCN(N3)C2=O)C(C)C)C1` [Example A61]: below 5000 nM and 0.01 to 0.1 µM.
On to `C=CC(=O)N1CC[C@H](C(=O)N(C)[C@H](C(=O)N[C@H]2Cc3cc(O)cc(c3)-c3ccc4c(c3)c(c(-c3cncc(C#N)c3)n4CC)CC(C)(C)COC(=O)[C@@H]3CCCN(N3)C2=O)C(C)C)C1` [Example A62], for which, in assay [1], the EC50 was below 5000 nM. Besides, the IC50 in assay [2] (setting [3]) was 0.01 to 0.1 µM.
Turning to `C=CC(=O)N1CC[C@@]2(CCCN([C@H](C(=O)N[C@H]3Cc4cc(O)cc(c4)-c4ccc5c(c4)c(c(-c4ccccc4CCOC)n5CC)CC(C)(C)COC(=O)[C@@H]4CCCN(N4)C3=O)C(C)C)C2=O)C1` [Example A63], the concentration giving a half-maximal response (EC50) in assay [1] is below 5000 nM. Moreover, the IC50 in assay [2] (setting [3]) fell in the range of 0.1 to 1 µM.
As for `C=CC(=O)N1CC[C@H](C(=O)N(C)[C@H](C(=O)N[C@H]2Cc3cc(O)cc(c3)-c3ccc4c(c3)c(c(C3=C(COC)CCCC3)n4CC)CC(C)(C)COC(=O)[C@@H]3CCCN(N3)C2=O)C(C)C)C1` [Example A64], the EC50 in assay [1] is below 5000 nM. For the same compound, the IC50 in assay [2] (setting [3]) was 0.01 to 0.1 µM.
The corresponding values for `C=CC(=O)N1CC[C@H](C(=O)N(C)[C@H](C(=O)N[C@H]2Cc3cc(O)cc(c3)-c3ccc4c(c3)c(c([C@@H]3CC=CN=C3COC)n4CC)CC(C)(C)COC(=O)[C@@H]3CCCN(N3)C2=O)C(C)C)C1` [Example A65] are below 5000 nM and 0.1 to 1 µM.
`C=CC(=O)N1CC[C@H](C(=O)N(C)[C@H](C(=O)N[C@H]2Cc3cc(O)cc(c3)-c3ccc4c(c3)c(c(-c3cccnc3COC)n4C)CC(C)(C)COC(=O)[C@@H]3CCCN(N3)C2=O)C(C)C)C1` [Example A66]: the EC50 in assay [1] is below 5000 nM. In assay [2] (setting [3]), the IC50 is 0.01 to 0.1 µM.
As for `CCn1c(-c2cccnc2COC)c2c3cc(ccc31)-c1cc(O)cc(c1)C[C@H](NC(=O)[C@H](C(C)C)N(C)C(=O)c1ccc(NC(=O)/C=C/CN(C)C)cn1)C(=O)N1CCC[C@H](N1)C(=O)OCC(C)(C)C2` [Example A67, (2E)-4-(dimethylamino)-N-(6-{[(1S)-1-{[(8S,14S)-22-ethyl-4-hydroxy-21-[2-(methoxymethyl)pyridin-3-yl]-18,18-dimethyl-9,15-dioxo-16-oxa-10,22,28-triazapentacyclo[18.5.2.1^2,^6.1^10,^14.0^23,^27]nonacosa-1(26),2,4,6(29),20,23(27),24-heptaen-8-yl]carbamoyl}-2-methylpropyl](methyl)carbamoyl}pyridin-3-yl)but-2-enamide], the EC50 in assay [1] was below 5000 nM. For the same compound, the IC50 in assay [2] (setting [3]) was in the range of 0.1 to 1 µM.
